Laboratory results: patent US9434724B2, “Quinuclidines for modulating alpha 7 activity” (priority 2014, dated 2016)
Structures can show the parent of a compound that is named as a salt. Where two headings read alike, the source gives them in different places.

Assays:
CYP3A4 = CYP3A4 (Homo sapiens (Human), UniProt P08684); conditions: microsomes, 5 min
Human plasma stability = assay type: in vitro ADME; conditions: plasma, 5 μM
Procedure, shortened: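 Protocol 1: 1 μM compound in pH 7.4 sodium-heparin human plasma at 37° C, sampled 0–120 min. Protocol 2: 5 μM in plasma at pH 7.4–8.0, 37° C, duplicates, sampled 0–120 min. Both: LC-MS/MS percent remaining versus t0; half-life from single-phase exponential decay.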

[1] = Metabolic stability assay in rat liver microsomes (RLM); assay type: in vitro ADME; conditions: 1 μM
Procedure, shortened: (§1)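 In Protocol 1, compound was 1 μM final with NADPH at 37 °C, sampled at 0–45 min. In Protocol 2, 1.5 μM compound with 0.75 mg/mL microsomes (pre-NADPH mix) in 0.1 M potassium phosphate, 1 mM EDTA, pH 7.4 was pre-incubated 10 min, then NADPH started the reaction. Both: LC-MS/MS % remaining versus time 0, half-life from single-phase exponential fit.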

[2] = Metabolic stability assay in human liver microsomes (HLM); assay type: in vitro ADME; conditions: 1 μM
Procedure, shortened: as §1

CYP2C19 = CYP2C19 (Homo sapiens (Human), UniProt P33261); conditions: microsomes, 45 min
[3] = target: T1, rat brain nicotinic receptor (α7 NAChR) (Rattus norvegicus (Rat), UniProt Q05941); assay type: binding
CYP2D6 = CYP2D6 (Homo sapiens (Human), UniProt P10635); experiment: Cytochrome P450 inhibition in human liver microsomes, CYP2D6; conditions: read-out: 2D6 IC50, Protocol 1
CYP1A2 = CYP1A2 (Homo sapiens (Human), UniProt P05177); experiment: Cytochrome P450 inhibition in human liver microsomes, CYP1A2; conditions: read-out: 1A2 IC50, Protocol 1
Human α7 NAChR = Human α7 NAChR (Homo sapiens (Human), UniProt P36544); experiment: Electrophysiology screen at 1 μM in Xenopus laevis oocytes; assay type: cell-based; conditions: 1 μM test compound; Imax = maximal current produced by 3 mM ACh
Description: Human α7 NAChR plasmid was prepared by GeneWiz from accession NM_000746.5. Human α7 NAChR mRNA was prepared by TriLink at a concentration near 1 μg/μL. The human α7 NAChR mRNA was diluted in sterile water to a working concentration near 10 ng/μL.
Oocytes were obtained from Xenopus laevis frogs and treated with collagenase by Ecocyte Bioscience. Oocytes were injected with the working concentration of α7 NAChR mRNA at a volume of 50 nL for a total of approximately 0.5 ng of α7 NAChR mRNA. Oocytes were maintained in Barth's solution at a temperature of 16° C. The Barth's solution was replaced daily.
Two-electrode voltage clamp recordings were made 3-14 days following mRNA injections at a holding voltage of −70 mV. The NAChR recordings were performed in Ca^++-free Ringer solution (115 mM NaCl, 2 mM KCl, 1.8 mM BaCl2, 5 mM HEPES; pH˜7.4) to limit Ca^++-activated chloride currents.
In all oocyte recordings, drug and wash solutions were applied using a custom-designed microcapillary “linear array” which allows rapid application of agonists. Currents were recorded on a PC-based computer (PClamp, Molecular Devices, Sunnyvale, Calif.). Responses were reported as (I/Imax), where I is the amount of current given by a selected concentration of drug and Imax is the amount of maximal current produced by a 3 mM solution of ACh.
Stocks of test compounds were prepared in DMSO. Test solutions in Ringer were prepared immediately before application of test compound (final DMSO concentration of 0.1%). The final concentration of test compound in the test solution was 1 μM. The test solution was perfused onto the oocyte until a peak current was recorded. There was approximately two minutes of wash time with only the Ringer solution between each application of agonist. Measurement of the test solution was repeated between 2 and 6 times with a two minute wash time between each application of test solution. An average of the currents for each test compound was used to define the response for the test compound.

[4] = target: T1, rat brain nicotinic receptor (α7 NAChR); assay type: binding; conditions: Protocol No. 2; [3H] α-Bungarotoxin 0.4 nM, rat brain P2 membrane
[5] = Protocol No. 1, rat liver microsomes
[6] = Protocol No. 1, human liver microsomes

T1 sequence (Q05941 23-502 limits assumed): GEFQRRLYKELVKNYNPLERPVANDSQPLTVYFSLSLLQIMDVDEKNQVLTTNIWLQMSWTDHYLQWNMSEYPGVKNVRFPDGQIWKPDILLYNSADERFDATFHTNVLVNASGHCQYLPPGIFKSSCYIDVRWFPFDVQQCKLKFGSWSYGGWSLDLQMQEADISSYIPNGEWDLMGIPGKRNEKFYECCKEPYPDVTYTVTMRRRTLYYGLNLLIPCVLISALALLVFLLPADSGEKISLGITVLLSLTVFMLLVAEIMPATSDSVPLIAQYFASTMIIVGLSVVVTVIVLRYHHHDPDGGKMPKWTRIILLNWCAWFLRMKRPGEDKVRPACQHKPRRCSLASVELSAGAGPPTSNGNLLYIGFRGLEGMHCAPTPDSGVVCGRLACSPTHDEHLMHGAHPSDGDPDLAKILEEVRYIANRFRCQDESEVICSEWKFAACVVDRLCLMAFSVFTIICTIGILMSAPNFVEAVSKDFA
Chain of Human α7 NAChR (P36544 23-502 limits assumed): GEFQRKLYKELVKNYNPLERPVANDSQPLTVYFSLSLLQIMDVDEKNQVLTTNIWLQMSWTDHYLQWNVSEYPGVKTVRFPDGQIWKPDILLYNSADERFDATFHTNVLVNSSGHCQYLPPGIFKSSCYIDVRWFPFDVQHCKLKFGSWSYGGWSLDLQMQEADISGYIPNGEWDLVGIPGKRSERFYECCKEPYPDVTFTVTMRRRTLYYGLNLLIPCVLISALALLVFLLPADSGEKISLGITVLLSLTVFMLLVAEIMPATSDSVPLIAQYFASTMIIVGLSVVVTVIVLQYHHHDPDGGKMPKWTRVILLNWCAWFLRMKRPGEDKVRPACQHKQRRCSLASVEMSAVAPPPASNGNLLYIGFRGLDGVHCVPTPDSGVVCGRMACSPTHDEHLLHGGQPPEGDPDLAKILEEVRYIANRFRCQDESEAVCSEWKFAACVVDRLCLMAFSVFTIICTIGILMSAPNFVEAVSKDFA
Chain of CYP3A4 (P08684 whole entry): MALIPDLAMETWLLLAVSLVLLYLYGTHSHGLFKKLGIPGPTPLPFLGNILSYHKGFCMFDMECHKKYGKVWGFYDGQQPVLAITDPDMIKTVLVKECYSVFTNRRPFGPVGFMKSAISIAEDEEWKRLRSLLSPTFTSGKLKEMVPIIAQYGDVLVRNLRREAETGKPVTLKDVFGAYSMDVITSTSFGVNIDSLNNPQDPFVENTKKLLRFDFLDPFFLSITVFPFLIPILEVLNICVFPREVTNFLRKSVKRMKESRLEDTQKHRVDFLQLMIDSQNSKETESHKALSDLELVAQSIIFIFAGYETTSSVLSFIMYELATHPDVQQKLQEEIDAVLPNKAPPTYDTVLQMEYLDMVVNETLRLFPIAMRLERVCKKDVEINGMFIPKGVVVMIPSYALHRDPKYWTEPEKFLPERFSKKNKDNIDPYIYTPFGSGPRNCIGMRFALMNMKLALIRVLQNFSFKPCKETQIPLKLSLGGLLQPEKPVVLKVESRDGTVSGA
Chain of CYP2C19 (P33261 whole entry): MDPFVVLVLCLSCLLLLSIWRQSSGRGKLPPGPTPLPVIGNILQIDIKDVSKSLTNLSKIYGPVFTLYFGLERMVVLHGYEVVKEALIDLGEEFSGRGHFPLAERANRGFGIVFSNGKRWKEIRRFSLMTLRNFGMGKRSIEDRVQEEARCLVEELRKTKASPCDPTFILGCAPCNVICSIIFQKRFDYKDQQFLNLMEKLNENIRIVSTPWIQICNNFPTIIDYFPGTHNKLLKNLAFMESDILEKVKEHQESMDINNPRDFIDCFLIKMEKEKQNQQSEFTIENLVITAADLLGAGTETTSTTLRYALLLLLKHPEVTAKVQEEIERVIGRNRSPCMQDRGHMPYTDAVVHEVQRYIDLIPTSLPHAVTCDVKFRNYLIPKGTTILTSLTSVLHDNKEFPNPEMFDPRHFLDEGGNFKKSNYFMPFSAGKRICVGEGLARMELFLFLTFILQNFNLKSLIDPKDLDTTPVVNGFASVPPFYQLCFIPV
Chain of CYP2D6 (P10635 whole entry): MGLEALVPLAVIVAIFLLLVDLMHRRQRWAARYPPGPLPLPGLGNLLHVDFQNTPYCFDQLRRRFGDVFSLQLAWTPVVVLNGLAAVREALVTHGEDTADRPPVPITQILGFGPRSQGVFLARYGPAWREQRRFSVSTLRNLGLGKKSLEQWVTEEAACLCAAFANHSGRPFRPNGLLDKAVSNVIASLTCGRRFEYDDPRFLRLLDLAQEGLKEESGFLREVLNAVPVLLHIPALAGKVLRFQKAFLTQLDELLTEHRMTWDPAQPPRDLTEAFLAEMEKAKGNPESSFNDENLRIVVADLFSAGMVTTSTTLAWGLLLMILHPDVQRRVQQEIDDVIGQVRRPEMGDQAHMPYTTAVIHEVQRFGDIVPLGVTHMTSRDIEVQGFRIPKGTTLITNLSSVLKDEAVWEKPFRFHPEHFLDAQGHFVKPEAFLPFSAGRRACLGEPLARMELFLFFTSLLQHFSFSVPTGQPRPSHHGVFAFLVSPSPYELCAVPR
Chain of CYP1A2 (P05177 whole entry): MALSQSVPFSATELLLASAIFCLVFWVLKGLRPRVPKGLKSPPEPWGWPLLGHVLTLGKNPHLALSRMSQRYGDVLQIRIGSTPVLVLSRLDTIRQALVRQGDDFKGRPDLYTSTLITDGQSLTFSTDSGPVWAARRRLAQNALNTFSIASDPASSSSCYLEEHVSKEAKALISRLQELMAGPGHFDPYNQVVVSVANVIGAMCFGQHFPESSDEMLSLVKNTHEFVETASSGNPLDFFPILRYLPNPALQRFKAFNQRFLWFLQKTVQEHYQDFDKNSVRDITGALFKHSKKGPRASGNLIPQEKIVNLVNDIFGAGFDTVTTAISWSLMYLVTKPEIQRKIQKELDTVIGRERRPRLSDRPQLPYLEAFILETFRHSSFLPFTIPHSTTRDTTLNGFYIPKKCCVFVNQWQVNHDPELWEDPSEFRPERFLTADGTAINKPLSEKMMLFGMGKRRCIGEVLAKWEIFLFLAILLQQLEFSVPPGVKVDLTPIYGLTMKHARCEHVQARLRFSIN

| SMILES | IC50 (CYP3A4) | % Remaining @ 2 h (Human plasma stability; human, 2 h) | RLM ([1]; rat, microsomes) | HLM ([2]; human, microsomes) | IC50 (CYP2C19) | IC50 [3] | Ki [3] | IC50 (CYP2D6) | IC50 (CYP1A2) | I/Imax (Human α7 NAChR) | % Remaining @ 2 h (Human plasma stability; Protocol No. 2, 37° C.) | RLM [1, 5] | HLM [2, 6] | IC50 [4] | Ki [4] |
| --- | --- | --- | --- | --- | --- | --- | --- | --- | --- | --- | --- | --- | --- | --- | --- |
| Cc1cc(C#N)cc2[nH]cc(C(=O)OCC34CCN(CC3)CC4)c12 [Compound 60, quinuclidin-4-ylmethyl 6-cyano-4-methyl-1H-indole-3-carboxylate] | > 10000 nM | 89.46% | 78.5875 mL/min/kg | 15.0953 mL/min/kg | > 10000 nM | 474 nM | 407 nM | > 10000 nM | > 10000 nM |  |  |  |  |  |  |
| O=C(OCC12CCN(CC1)CC2)c1c[nH]c2ccc(F)c(Cl)c12 [Compound 62, quinuclidin-4-ylmethyl 4-chloro-5-fluoro-1H-indole-3-carboxylate hydrochloride] |  | 74.02% | 498.991 mL/min/kg | 7.061 mL/min/kg |  | 113 nM | 97.6 nM |  |  | 0.171 |  |  |  |  |  |
| Cc1ccc2[nH]cc(C(=O)OCC34CCN(CC3)CC4)c2c1Cl [Compound 63, quinuclidin-4-ylmethyl 4-chloro-5-methyl-1H-indole-3-carboxylate] |  | 74.47% | 1465.43 mL/min/kg | 0.4623 mL/min/kg |  | 117 nM | 101 nM |  |  | 0.118 |  |  |  |  |  |
| Cc1cc2[nH]cc(C(=O)OCC34CCN(CC3)CC4)c2cc1F [Compound 72, Quinuclidin-4-ylmethyl 5-fluoro-6-methyl-1H-indole-3-carboxylate hydrochloride] |  |  |  |  |  | 145 nM | 125 nM |  |  | 0.347 | 70.78% | 339.452 mL/min/kg | 3.032 mL/min/kg |  |  |
| Cc1cc2[nH]cc(C(=O)OCC34CCN(CC3)CC4)c2cc1C.Cl [Compound 73, Quinuclidin-4-ylmethyl 5,6-dimethyl-1H-indole-3-carboxylate hydrochloride] |  |  |  |  |  | 168 nM | 145 nM |  |  | 0.367 | 41.93% | 766.779 mL/min/kg | 2.825 mL/min/kg |  |  |
| COc1cc(Cl)cc2[nH]cc(C(=O)OCC34CCN(CC3)CC4)c12.Cl [Compound 74, quinuclidin-4-ylmethyl 6-chloro-4-methoxy-1H-indole-3-carboxylate hydrochloride] |  |  |  |  |  | 181 nM | 154 nM |  |  | 0.157 | 61.85% | 342.736 mL/min/kg | 9.6502 mL/min/kg |  |  |
| Cl.O=C(OCC12CCN(CC1)CC2)c1c[nH]c2cccc(C(F)(F)F)c12 [Compound 80, Quinuclidin-4-ylmethyl 4-(trifluoromethyl)-1H-indole-3-carboxylate hydrochloride] |  |  |  |  |  | 203 nM | 176 nM |  |  | 0.032 | 81.31% | 1443.16 mL/min/kg | 5.54 mL/min/kg |  |  |
| COCCOc1ccc2[nH]cc(C(=O)OCC34CCN(CC3)CC4)c2c1C [Compound 91, quinuclidin-4-ylmethyl 5-(2-methoxyethoxy)-4-methyl-1H-indole-3-carboxylate] |  | 81.12% | 235.4 mL/min/kg | 6.14 mL/min/kg |  |  |  |  |  | 0.205 |  |  |  | 221 nM | 859 nM |
| COCCCOc1ccc2[nH]cc(C(=O)OCC34CCN(CC3)CC4)c2c1C [Compound 92, quinuclidin-4-ylmethyl 5-(3-methoxypropoxy)-4-methyl-1H-indole-3-carboxylate] |  | 64.72% | 149.88 mL/min/kg | 10.37 mL/min/kg |  |  |  |  |  | 0.266 |  |  |  | 76.1 nM | 133 nM |
